Results as given in US20080269258A1, “Riboswitches, Structure-Based Compound Design with Riboswitches, and Methods and Compositions for Use of and with Riboswitches” (priority 2004, published 2008).
≈ marks a conversion by molar mass, not a printed value. Like-named read-outs stand apart in the source and are kept apart here.

Legend:
[1] = target: adenine riboswitch RNA (AR); experiment: Isothermal titration calorimetry, adenine riboswitch RNA; format: binding; conditions: 50 mM K+HEPES, pH 7.5, 100 mM KCl, 10 mM MgCl2, 30° C.
Protocol: Isothermal Titration Calorimetry. […] All experiments were performed with a Microcal MCS ITC instrument at 30° C. […] Titration data was analyzed using Origin ITC software (Microcal Software Inc.) and fit to a single-site binding model.

[2] = tested on: guanine riboswitch RNA (GR); experiment: Isothermal titration calorimetry, guanine riboswitch RNA; format: binding, B. subtilis
Text: Isothermal Titration Calorimetry. RNA for isothermal titration calorimetry (ITC) (Leavitt, S. & Freire, E. Direct measurement of protein binding energetics by isothermal titration calorimetry. Curr Opin Struct Biol 11, 560-6 (2001); Pierce, M., Raman, C. S. & Nall, B. T. Isothermal titration calorimetry of protein-protein interactions. […]

[3] = tested on: guanine riboswitch (aptamer of the xpt-pbuX mRNA); experiment: In-line probing of ligand binding to the guanine riboswitch in vitro; parameters: species or system B. subtilis; conditions: for Kd: high Mg2+ ion concentrations (20 mM MgCl2), read-out: observed dissociation constant (Kd)
Text: The putative anti-terminator interaction is represented by the boxes. Nucleotides that undergo structural alteration as determined by in-line probing (from C) are identified with squares. […] Asterisks denote alterations to the RNA sequence that facilitate in vitro transcription (5′ terminus) or that generate a restriction site (3′ terminus). Nucleotide numbers begin at the first nucleotide of the natural transcription start site. The translation start codon begins at position 186. […] Lanes designated NR, T1 and ^−OH contain RNA that was not reacted, subjected to partial digestion with RNase T1 (G-specific cleavage), or subjected to partial alkaline digestion, respectively. Selected bands corresponding to G-specific cleavage are identified.
Differences in chemical structure relative to guanine are encircled. Numbers on guanine represent the positions of the ring nitrogen atoms.
NR, T1 and OH identify no reaction, nuclease T1 partial digestion, and alkaline partial digestion respectively. In-line probing assays were conducted for ˜1 day, and a dampening of spontaneous RNA cleavage product bands in the J1/2, J2/3 and J3/1 regions are indicative of ligand binding.

[4] = target: purR repressor protein (Escherichia coli, UniProt P0ACP7); conditions: read-out: observed Kd; E. coli variant of purR repressor; cited from earlier work
purR repressor protein, sequence (P0ACP7 whole entry): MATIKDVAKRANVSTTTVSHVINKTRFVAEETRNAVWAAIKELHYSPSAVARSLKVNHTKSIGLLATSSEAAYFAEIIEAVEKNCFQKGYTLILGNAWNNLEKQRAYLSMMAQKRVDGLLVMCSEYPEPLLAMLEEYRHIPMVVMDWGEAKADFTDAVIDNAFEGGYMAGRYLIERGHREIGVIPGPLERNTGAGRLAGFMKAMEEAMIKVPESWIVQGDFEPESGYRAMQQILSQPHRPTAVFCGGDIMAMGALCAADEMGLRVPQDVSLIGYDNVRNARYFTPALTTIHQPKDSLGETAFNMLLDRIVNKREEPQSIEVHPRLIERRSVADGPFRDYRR

[5] = tested on: methicillin-resistant Staphylococcus aureus; experiment: Minimal inhibitory concentration, clinically relevant pathogens; format: cell-based; conditions: MRSA, read-out: Minimal inhibitory concentrations, MRSA
[6] = tested on: Bacillus anthracis; experiment: microbe, parasite or virus in culture; format: cell-based; conditions: read-out: Minimal inhibitory concentrations, BA
[7] = tested on: Streptococcus pneumoniae; experiment: Minimal inhibitory concentration, clinically relevant pathogens; format: cell-based; conditions: read-out: Minimal inhibitory concentrations, SP
[8] = tested on: Haemophilus influenza; experiment: as above; format: cell-based; conditions: pathogen without guanine riboswitch, read-out: Minimal inhibitory concentrations, HI
[9] = tested on: Mycobacterium smegmatis; experiment: as above; format: cell-based; conditions: Mycolicibacterium smegmatis; pathogen without guanine riboswitch; read-out: Minimal inhibitory concentrations, MS
[10] = 50 mM K+HEPES, 100 mM KCl, 10 mM MgCl2, 30° C.
[11] = 50 mM K+HEPES, 100 mM KCl, 10 mM MgCl2, 30° C., read-out: Kd

## Nc1nc(N)c(N)c(N)n1 [2,4,5,6-Tetraaminopyrimidine]
[1]
  Kd: 24.9 ± 4.25 µM
  ΔH: -43.2 ± 3.50 kcal/mol
  ΔS: −122 ± 12.0 Cal/mol · deg

## Nc1cc(N)nc(N)n1 [2,4,6-Triaminopyrimidine]
[1]
  Kd: 18.3 ± 1.67 µM
  ΔH: -37.7 ± 0.23 kcal/mol
  ΔS: −102 ± 0.70 Cal/mol · deg

## Nc1nc(N)c2[nH]cnc2n1 [2,6-Diaminopurine]
[1]
  Kd: 0.017 ± 0.006 µM
  ΔH: -40.3 ± 2.91 kcal/mol
  ΔS: −97.6 ± 4.00 Cal/mol · deg

## Nc1ncc2[nH]cnc2n1 [2-Aminopurine]
[2]; [10]
  ΔH: -46.4 ± 2.66 kcal/mol
  ΔS: −129 ± 8.20 cal/mol · deg
[2]; [11]
  Kd: 4.36 ± 1.2 µM
[1]
  Kd: 0.251 ± 0.026 µM
  ΔH: -31.8 ± 2.64 kcal/mol
  ΔS: −73.9 ± 9.26 Cal/mol · deg

## Nc1nc(F)nc2nc[nH]c12 [2-Fluoroadenine]
[1]
  Kd: 4.02 ± 1.07 µM
  ΔH: -37.4 ± 3.41 kcal/mol
  ΔS: −98.7 ± 11.8 Cal/mol · deg

## Nc1nc(Br)c2[nH]cnc2n1 [6-Bromoguanine]
[2]; [10]
  ΔH: -39.0 ± 7.79 kcal/mol
  ΔS: −103 ± 26.2 cal/mol · deg
[2]; [11]
  Kd: 2.12 ± 0.56 µM
[1]
  Kd: 2.7 ± 1.16 µM
  ΔH: -50.4 ± 0.16 kcal/mol
  ΔS: −141 ± 1.90 Cal/mol · deg

## Nc1nc(Cl)c2nc[nH]c2n1 [6-Chloroguanine]
[2]; [10]
  ΔH: -43.6 ± 13.1 kcal/mol
  ΔS: −116 ± 43.2 cal/mol · deg
[2]; [11]
  Kd: 0.856 ± 0.014 µM
[1]
  Kd: 0.721 ± 0.044 µM
  ΔH: -44.3 ± 7.2 kcal/mol
  ΔS: −98.6 ± 4.39 Cal/mol · deg

## Cc1ncnc2nc[nH]c12 [6-Methylpurine]
[1]
  Kd: 25.2 ± 1.63 µM
  ΔH: -31.5 ± 0.42 kcal/mol
  ΔS: −82.9 ± 1.25 Cal/mol · deg

## CSc1nc(N)nc2nc[nH]c12 [6-Methylthioguanine]
[2]; [10]
  ΔH: -24.5 ± 0.20 kcal/mol
  ΔS: −46.9 ± 0.24 cal/mol · deg
[2]; [11]
  Kd: 0.0418 ± 0.003 µM

## Nc1nc2nc[nH]c2c(=S)[nH]1 [6-Thioguanine]
[2]; [10]
  ΔH: -40.6 ± 14.5 kcal/mol
  ΔS: −101 ± 47.5 cal/mol · deg
[2]; [11]
  Kd: 0.0737 ± 0.01 µM

## Nc1nc2c(c(=O)[nH]1)CC=N2 [7-Deazaguanine]
[2]; [10]
  ΔH: -42.0 ± 3.72 kcal/mol
  ΔS: −105 ± 11.7 cal/mol · deg
[2]; [11]
  Kd: 0.049 ± 0.013 µM

## Nc1ncnc2nc[nH]c12 [Adenine]
[1]
  Kd: 0.469 ± 0.041 µM
  ΔH: -34.5 ± 0.05 kcal/mol
  ΔS: −84.8 ± 0.30 Cal/mol · deg

## Nc1nc2nn[nH]c2c(=O)[nH]1 [Compound 8-Azaguanine, 8-Azaguanine]
[2]; [10]
  ΔH: -46.9 ± 9.87 kcal/mol
  ΔS: −121 ± 32.6 cal/mol · deg
[2]; [11]
  Kd: 0.0487 ± 0.1 µM

## Nc1nc2nc[nH]c2c(=O)[nH]1 [Guanine]
[3]
  affinity of the riboswitch for guanine over hypoxanthine: tenfold
  Kd: 0.005 µM
[2]; [10]
  ΔH: -53.5 ± 6.98 kcal/mol
  ΔS: −137 ± 24.8 cal/mol · deg
[2]; [11]
  Kd: 0.004 ± 0.003 µM

## O=c1[nH]cnc2nc[nH]c12 [Hypoxanthine]
[3]
  Kd: 0.05 µM
[2]; 0.25 mM MgCl2, 30° C.
  ΔHobs: -41.9 ± 0.39 kcal/mol
  ΔSobs: −113 cal mol^−1 K^−1
[2]; 0.25 mM MgCl2, 30° C., read-out: Kd
  Kd: 4 ± 0.19 µM
[2]; 1.0 mM MgCl2, 30° C.
  ΔHobs: -35.4 ± 0.93 kcal/mol
  ΔSobs: −91 cal mol^−1 K^−1
[2]; 1.0 mM MgCl2, 30° C., read-out: Kd
  Kd: 2.99 ± 0.19 µM
[2]; 5.0 mM MgCl2, 30° C.
  ΔHobs: -28.4 ± 0.48 kcal/mol
  ΔSobs: −67 cal mol^−1 K^−1
[2]; 5.0 mM MgCl2, 30° C., read-out: Kd
  Kd: 1.34 ± 0.094 µM
[2]; 20 mM MgCl2, 30° C.
  ΔHobs: -33.5 ± 0.43 kcal/mol
  ΔSobs: −82 cal mol^−1 K^−1
[2]; 20 mM MgCl2, 30° C., read-out: Kd
  Kd: 0.732 ± 0.034 µM
[2]; [10]
  ΔH: -31.3 ± 0.01 kcal/mol
  ΔS: −75.3 ± 0.145 cal/mol · deg
[2]; [11]
  Kd: 0.759 ± 0.066 µM
[2]; ITC, more physiological ionic strength (0.25-1 mM Mg2+), read-out: observed Kd
  Kd: 3 to 4 µM
[4]
  Kd: 9 µM

## COc1nc(N)nc2nc[nH]c12 [O-Methylguanine]
[2]; [10]
  ΔH: -18.7 kcal/mol
  ΔS: −23.3 cal/mol · deg
[2]; [11]
  Kd: 0.003 µM

## c1ncc2[nH]cnc2n1 [Purine]
[1]
  Kd: 110 ± 3 µM
  ΔH: -25.4 ± 0.99 kcal/mol
  ΔS: −65.4 ± 3.00 Cal/mol · deg

## CN[C@H](CC(C)C)C(=O)N[C@H]1C(=O)N[C@@H](CC(N)=O)C(=O)N[C@H]2C(=O)N[C@H]3C(=O)N[C@H](C(=O)N[C@H](C(=O)O)c4cc(O)cc(O)c4-c4cc3ccc4O)[C@H](O)c3ccc(c(Cl)c3)Oc3cc2cc(c3O[C@@H]2O[C@H](CO)[C@@H](O)[C@H](O)[C@H]2O[C@H]2C[C@](C)(N)[C@H](O)[C@H](C)O2)Oc2ccc(cc2Cl)[C@H]1O [Vancomycin]
[5]
  MIC: 1 µg/mL (≈ 0.69 µM)
[6]
  MIC: 1.5 µg/mL (≈ 1.04 µM)
[7]
  MIC: 0.25 µg/mL (≈ 0.173 µM)
[8]
  MIC: 64 µg/mL (≈ 44.2 µM)
[9]
  MIC: 24 µg/mL (≈ 16.6 µM)

## O=c1[nH]c(=O)c2[nH]cnc2[nH]1 [Xanthine]
[2]; [10]
  ΔH: -34.6 ± 10.4 kcal/mol
  ΔS: −94.4 ± 34.5 cal/mol · deg
[2]; [11]
  Kd: 50.5 ± 5.8 µM
